Experiment [1] deals with E2F-1/Cyclin A interaction (Homo sapiens, UniProt P20248). Description: E2F-1/Cyclin A/cdk2 ELISA. The class given is binding. How it is done:
An ELISA was developed to identify antagonists of E2F-1/Cyclin A interaction. This method is based on interactions between three proteins, E2F-1, Cyclin A and cdk2 and is analyzed colorimetrically. This assay was used to determine IC50 values for various synthetic peptides that were used in biological experiments and for SAR studies.
This assay allows determination of IC50 values for various synthetic peptides that were used in biological experiments or for SAR studies.
Nunc Immulon II ELISA plates are coated overnight at 4° C. with 250 μL of […] anti-GST antibody (Pharmacia Biotech) in bicarbonate buffer. Following five washes with wash buffer consisting of 50 mM Tris (pH=7.5), 0.15 M NaCl, and 0.01% Tween-20 (TBST), non-specific sites were blocked for 2 hr at room temperature with 300 μL of assay buffer consisting of 50 mM HEPES (pH=7.5), 0.15 M NaCl, 0.1% Triton X-100, and 5% bovine serum albumin (BSA). Plates were then washed five times in TBST, aspirated dry, and treated with 100 μL of GST-E2F-1 in TBS (25 nM). GST-E2F-1 was incubated at RT for at least 1 hr with non-specific binding (NSB) control wells receiving assay buffer with no protein. Plates were washed five times in TBST and multiple concentrations of test compounds diluted in assay buffer were co-incubated with 5 nM Cyclin A/cdk2 diluted in assay buffer. The Cyclin A/cdk2 complex was freshly prepared by mixing a 1:1 ratio of the two proteins in TBS at 4° C. for 30 min prior to addition to the assay plate. Following incubation for 2 hr at RT, plates were washed five times in TBST, and 100 μL of a 1:500 dilution of a rabbit anti-cdk2 antibody (Santa Cruz) diluted in assay buffer and were added to all wells. Following incubation for at least 1 hr at RT or overnight at 4° C., the plates were washed five times in TBST and 100 μL of a 1:1000 dilution of a HRP-conjugated anti-rabbit IgG antibody (Pierce) were added to all wells. Following a half hour incubation at RT, the plates were washed five times in TBST, aspirated dry, and developed by the addition of 100 μL of a HRP substrate ABTS prepared in sodium citrate buffer (pH=4.2). After 10-15 min, absorbance is read using a microplate reader at 405 nm.
(In an ELISA, binding on a coated surface is turned into a signal by an enzyme label.)

In experiment [2] the test system is WI38/VA13 SV40 cells. The conditions noted are these: read-out: IC50 growth inhibition; WI38/VA13 SV40, 24 hr, MTS.
Description: (§4) Evaluation of Growth Inhibition. 3×10^3 cells/well were plated on a 96 well plate at 10% FCS and cultured overnight. The culture medium was discarded, and the cells were washed once with Opti-MEM. The cell monolayers were incubated at 37° C. with peptide solutions at various concentrations for 24 hr. The growth inhibition was evaluated using solutions composed of 3-(4,5-dimethylthiazol-2-yl)-5-(3-carboxymethoxyphenyl)-2-(4-sulfophenyl)-2H-tetrazolium; MTS (from Promega) and phenazine methosulfate; PMS (from Sigma).
Experiment [3] has as its system A549 cells. Description: Growth inhibition (MTS assay), A549. The class given is cell-based, Human. The conditions noted are these: A549, 24 hr. The source says: (§1) Evaluation of Growth Inhibition.
(In general: Tetrazolium dyes change colour on reduction, which living cells bring about.)

Experiment [4] deals with MDA-MB-435 cells. As to the kind of experiment: Growth inhibition (MTS assay), MDA-MB-435. Format: cell-based, Human. The conditions noted are these: MDA-MB-435, 24 hr.
Description: as §1

Experiment [5] concerns U2OS cells. As to the kind of experiment: Growth inhibition (MTS assay), U2OS. Format: cell-based, Human. The conditions noted are these: for IC50: 24 hr, MTS; for cell morphology: beginning at about 3 hr post-treatment; for inhibition as measured by the MTS assay: asynchronous culture of U2OS.
Description: as §1

Experiment [6] relates to MDA-MB-231 cells. The conditions noted are these: read-out: IC50 growth inhibition; MDA-MB-231, 24 hr, MTS.
Description: (§5) MDA-MB-435, U2OS, A549, MDA-MB-231 cells were maintained in DMEM supplemented with 10% FCS. SW480 and HCT-116 were grown in RPMI 1640 supplemented with 10% FCS.
as §4
Experiment [7] has as its system MDA-MB-435 cells. As to the kind of experiment: Uptake and intracellular compartmentalization (fluorescence microscopy), MDA-MB-435. Format: cell-based, Human. The conditions noted are these: MDA-MB-435, after 30 min of incubation. How it is done: (§2) Peptide Treatment and Fluorescence Microscopy. 4×10^4 cells/well were plated on a 48 well plate at 10% FCS and cultured overnight. […] For detection of fluorescein-labeled peptides, cells were rinsed once with PBS (pH=7.3) and visualized using a fluorescence microscope (Axiovert 135 at 320×).
(§3) Uptake and Intracellular Compartmentalization of Tat Peptides. The internalization of the Tat-mt peptide labeled with fluorescein maleimide on the cysteine residue was investigated. The labeled peptide was verified by mass spectrometry and purified by HPLC before use. […] We further repeated the experiments with incubation of the peptide at 30 and 100 μM for 24 hr in osteosarcoma U2OS cells. […] The peptide was tested under the same conditions after direct labeling with fluorescein maleimide. No variation in the amount and localization of the internalized peptide was observed as compared with the Tat-peptide.

For experiment [8], the system named is U2OS cells. As to the kind of experiment: Uptake and intracellular compartmentalization (fluorescence microscopy), U2OS. The conditions noted are these: 30 and 100 μM, 24 hr. The class given is cell-based, Human. How it is done:
as §2, §3

Experiment [9] relates to HeCat cells. The conditions noted are these: read-out: IC50 growth inhibition, 24 hr, MTS.
Description: as §4
In experiment [10] the test system is SW480 cells. The conditions noted are these: read-out: IC50 growth inhibition; SW480, 24 hr, MTS.
Description: as §5, §4
The subject of experiment [11] is Rat1 cells. The conditions noted are these: read-out: IC50 growth inhibition; Rat1, 24 hr, MTS.
Description: as §4
The subject of experiment [12] is HCT-116 cells. The conditions noted are these: read-out: IC50 growth inhibition; HCT-116, 24 hr, MTS.
Description: as §5, §4
The mark [13] stands for this setting: linear peptide, read-out: IC50 Linear.
The mark [14] stands for this setting: E2F-1/Cyclin A/cdk2 ELISA, read-out: IC50.
[15] abbreviates: cyclic peptides, read-out: ELISA IC50.
The mark [16] stands for this setting: cyclized between side-chain amino group of Lys* and carboxyl group of Gly*, read-out: IC50 Cyclic.
Setting [17] is: original identified sequences (linear), read-out: IC50.

Read-outs that look alike come from different tables or passages of the source. Where a SMILES comes first, the peptide text is derived from it. Bridges are numbered along the chain shown (N, C = ends). Where no end group is shown, it is not given here. [ ]: non-standard residue; d: D form.

By IC50 is commonly meant the concentration at which inhibition is half-maximal.

Consider `CC(=O)N[C@@H](CCCN=C(N)N)C(=O)N[C@@H](CCCCN)C(=O)N[C@@H](CC(C)C)C(=O)N[C@@H](Cc1ccccc1)C(=O)NCC(=O)O` [Ac-Arg-Lys-*Leu-Phe-Gly* (Linear), Ac-Arg-Lys-*Leu-Phe-Gly*], for which the half-inhibitory concentration (IC50) in [1] (setting [13]) came out at 30000 nM.

For the molecule `CC(C)C[C@@H]1NC(=O)[C@@H](NC(=O)[C@H](CCCNC(=N)N)NC(=O)[C@H](CCCCN)NC(=O)[C@H](C)NC(=O)[C@@H]2CCCN2C(=O)CNC(=O)[C@H](CCCNC(=N)N)NC(=O)[C@H](CCCNC(=N)N)NC(=O)[C@H](CCCNC(=N)N)NC(=O)[C@H](CCC(N)=O)NC(=O)[C@H](CCCNC(=N)N)NC(=O)[C@H](CCCNC(=N)N)NC(=O)[C@H](CCCCN)NC(=O)[C@H](CCCCN)NC(=O)[C@H](CCCNC(=N)N)NC(=O)CNC(=O)[C@@H](N)Cc2ccc(O)cc2)CCCCNC(=O)CNC(=O)[C@H](Cc2ccccc2)NC1=O` [Tat-cyclic, YGRKKRRQRRRG PAKR(KLFG)] (H-YGRKKRRQRRRGPAKRKLFG; lactam 17-C), the IC50 in experiment [2] was in the range of 6000 to 7000 nM; in experiment [1], 100 to 1000 nM; in experiment [3] it was 26000 to 46000 nM; in experiment [4], 6000 to 7000 nM; in [5] (U2OS), 6000 to 7000 nM; in experiment [6], 6000 to 7000 nM. In [5] (U2OS), the cell morphology entry is recorded as “rounded morphology”. Also, the “inhibition as measured by the MTS assay” value in [5] is “dose-dependent inhibition”.

For the molecule `CC(C)C[C@@H]1NC(=O)[C@@H](NC(=O)[C@H](CCCNC(=N)N)NC(=O)[C@H](CCCCN)NC(=O)[C@H](C)NC(=O)[C@H]2CCCN2)CCCCNC(=O)CNC(=O)[C@H](Cc2ccccc2)NC1=O` [compound 2, Pro-Ala-Lys-Arg-(Lys-Leu-Phe-Gly)] (H-[dP]AKRKLFG; lactam 5-C), the IC50 in [1] (setting [14]), in experiment [1] (setting [15]) and in [1] (setting [16]) was 1 nM throughout.

As for `CC(=O)N[C@@H](C)C(=O)N[C@@H](CCCCN)C(=O)N[C@@H](CCCNC(=N)N)C(=O)N[C@H]1CCCCNC(=O)CNC(=O)[C@H](Cc2ccccc2)NC(=O)[C@H](CC(C)C)NC1=O` [compound 3, Ac-Ala-Lys-Arg-(Lys-Leu-Phe-Gly)] (Ac-AKRKLFG; lactam 4-C), the half-maximal inhibitory concentration (IC50) in [1] (setting [15]) and in [1] (setting [16]) was 10 nM throughout.

Turning to `CC(=O)N[C@@H](CCCCN)C(=O)N[C@@H](CCCNC(=N)N)C(=O)N[C@H]1CCCCNC(=O)CNC(=O)[C@H](Cc2ccccc2)NC(=O)[C@H](CC(C)C)NC1=O` [compound 4, Ac-Lys-Arg-(Lys-Leu-Phe-Gly)] (Ac-KRKLFG; lactam 3-C), the IC50 in [1] (setting [14]), in experiment [1] (setting [15]) and in experiment [1] (setting [16]) was 20 nM throughout.

Regarding “Ac-AKRKLFG [Ac-Ala-Lys-Arg-Lys-*Leu-Phe-Gly*]”, the IC50 in experiment [1] (setting [13]) was found to be 200 nM.

Regarding “Ac-KRKLFG [Ac-Lys-Arg-Lys-*Leu-Phe-Gly* (Linear), Ac-Lys-Arg-Lys-*Leu-Phe-Gly*]”, in [1] (setting [13]), the half-inhibitory concentration (IC50) turned out to be 1000 nM.

As to “FluMalCXYGRKKRRQRRRG PVKARLDL [FITC-Tat-mt]”, in experiment [7], the intracellular localization result is “mainly recovered from the nucleus with a nucleolar accumulation”. Besides, the “penetration to the nucleus” value in experiment [8] is 100%.

On to “PAKRKLFG [Pro-Ala-Lys-Arg-Lys-Leu-Phe-GIy]”, for which the IC50 in [1] (setting [13]) and in experiment [1] (setting [17]) was 100 nM each time.

As for SACRNLFG [reference compound], in [1] (setting [17]), the half-inhibitory concentration (IC50) came out at 200 nM.

In the case of YGRKKRRQRRRG [Tat, reference compound], the “failed to cause any morphological changes and MTS reading up to” value in experiment [5] (U2OS) is recorded as > 300 μM.

With “YGRKKRRQRRRGPVKRRLDL [Tat-linear, YGRKKRRQRRRG PVKRRLDL]”, the IC50 in [1] was 100 to 1000 nM; in [9], > 100000 nM; in experiment [10] it was 26000 nM; in experiment [4], 48000 to 50000 nM; in [5] (U2OS), 28000 to 40000 nM; in experiment [11], > 100000 nM. Also, in [12], the IC50 turned out to be 80000 nM. Besides, the cell morphology entry in [5] (U2OS) is given as “rounded morphology”. In addition, the “inhibition as measured by the MTS assay” value in experiment [5] was “dose-dependent inhibition”.

The record behind these values is patent US20040077549A1, “Inhibitors of the E2F-1/cyclin interaction for cancer therapy” (priority 2000, published 2004).
